# Measured values as given in PubChem BioAssay AID330 (DTP/NCI, 2004).
# Several values for one entry are separate records, joined by “and”; a condition that tells them apart may be missing. Equal entries are not always repeated. Toxic doses and inconclusive results are not listed.
# System: P388 leukemia ip, CD2F1 mice, survival T/C
# Assay: NCI In Vivo Anticancer Drug Screen. Data for tumor model P388 Leukemia (intraperitoneal) in CD2F1 (CDF1) mice
# Details: endpoint: median survival time, higher = longer survival
# How it was run: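 Mice carrying the transplanted tumor received test compound or vehicle. Survival was recorded in each group, and the value is the treated-group measurement divided by that of the vehicle-treated control group.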
# [1] = dose: 12.5 mg/kg/injection, schedule: Q01DX009 (ip), vehicle: saline
# [2] = dose: 100.0 mg/kg/injection, schedule: Q01DX009 (ip), vehicle: saline
# [3] = dose: 200.0 mg/kg/injection, schedule: Q01DX009 (ip), vehicle: saline
# [4] = dose: 12.5 mg/kg/injection, schedule: Q01DX005 (ip), vehicle: Klucel (hydroxypropylcellulose) (HPC)
# [5] = dose: 25.0 mg/kg/injection, schedule: Q01DX005 (ip), vehicle: Klucel (hydroxypropylcellulose) (HPC)
# [6] = dose: 50.0 mg/kg/injection, schedule: Q01DX005 (ip), vehicle: Klucel (hydroxypropylcellulose) (HPC)
# [7] = dose: 100.0 mg/kg/injection, schedule: Q01DX005 (ip), vehicle: Klucel (hydroxypropylcellulose) (HPC)
# [8] = dose: 60.0 mg/kg/injection, schedule: Q01DX005 (ip), vehicle: saline with Tween-80
# [9] = dose: 120.0 mg/kg/injection, schedule: Q01DX005 (ip), vehicle: saline with Tween-80
# [10] = dose: 25.0 mg/kg/injection, schedule: Q01DX009 (ip), vehicle: saline with Tween-80
# [11] = dose: 50.0 mg/kg/injection, schedule: Q01DX009 (ip), vehicle: saline with Tween-80
# [12] = dose: 240.0 mg/kg/injection, schedule: Q01DX005 (ip), vehicle: saline with Tween-80
# [13] = dose: 50.0 mg/kg/injection, schedule: Q01DX009 (ip), vehicle: saline
# [14] = dose: 6.25 mg/kg/injection, schedule: Q01DX009 (ip), vehicle: saline with Tween-80
# [15] = dose: 12.5 mg/kg/injection, schedule: Q01DX009 (ip), vehicle: saline with Tween-80
# [16] = dose: 60.0 mg/kg/injection, schedule: Q01DX005 (ip), vehicle: saline
# [17] = dose: 120.0 mg/kg/injection, schedule: Q01DX005 (ip), vehicle: saline
# [18] = dose: 240.0 mg/kg/injection, schedule: Q01DX005 (ip), vehicle: saline
structure (smiles),measurement,setting,value
CCC(=O)NC(C)C(=O)O (stereo unspecified),T/C,"dose: 6.25 mg/kg/injection, schedule: Q01DX009 (ip), vehicle: saline",100 % of control
same,T/C,[1],88 % of control
same,T/C,"dose: 25.0 mg/kg/injection, schedule: Q01DX009 (ip), vehicle: saline",88 % of control
same,T/C,[2],94 % of control
same,T/C,[3],97 % of control
C/C(=N\Nc1cc(C)nc2cc3c(cc12)OCO3)c1cn(C)n(-c2ccccc2)c1=O,T/C,"dose: 3.12 mg/kg/injection, schedule: Q01DX005 (ip), vehicle: Klucel (hydroxypropylcellulose) (HPC)",97 % of control
same,T/C,"dose: 6.25 mg/kg/injection, schedule: Q01DX005 (ip), vehicle: Klucel (hydroxypropylcellulose) (HPC)",97 % of control
same,T/C,[4],103 % of control and 96 % of control
same,T/C,[5],100 % of control
same,T/C,[6],98 % of control and 110 % of control
same,T/C,[7],109 % of control
CCOc1c(N=Nc2ccc(C)cc2)c(C)nn1C(N)=S,T/C,"dose: 15.0 mg/kg/injection, schedule: Q01DX005 (ip), vehicle: Klucel + Tween-80",103 % of control
same,T/C,"dose: 30.0 mg/kg/injection, schedule: Q01DX005 (ip), vehicle: Klucel + Tween-80",105 % of control
COc1cc(/C=N/NC(=O)C(N)Cc2ccc(O)cc2)ccc1O (stereo unspecified),T/C,"dose: 50.0 mg/kg/injection, schedule: Q01DX005 (ip), vehicle: saline with Tween-80",100 % of control
same,T/C,"dose: 100.0 mg/kg/injection, schedule: Q01DX005 (ip), vehicle: saline with Tween-80",94 % of control
same,T/C,"dose: 200.0 mg/kg/injection, schedule: Q01DX005 (ip), vehicle: saline with Tween-80",103 % of control
O=C(/N=C1\N=Nc2nc(C3(c4nc5n(c4O)/C(=N/C(=O)Nc4ccc(Cl)cc4)N=N5)CCCC3=O)c(O)n21)Nc1ccc(Cl)cc1 (stereo unspecified),T/C,[8],91 % of control
same,T/C,[9],86 % of control
[N-]=[N+]=NC(=O)c1ccccn1,T/C,[10],101 % of control
same,T/C,[11],113 % of control
same,T/C,"dose: 100.0 mg/kg/injection, schedule: Q01DX009 (ip), vehicle: saline with Tween-80",120 % of control
Nc1nc(N)c2ncn(Cc3c(Cl)cccc3Cl)c2n1,T/C,"dose: 50.0 mg/kg/injection, schedule: Q01DX005 (ip), vehicle: distilled water + alcohol",95 % of control
same,T/C,"dose: 100.0 mg/kg/injection, schedule: Q01DX005 (ip), vehicle: distilled water + alcohol",97 % of control
same,T/C,"dose: 200.0 mg/kg/injection, schedule: Q01DX005 (ip), vehicle: distilled water + alcohol",93 % of control
O=CNC(Cc1ccccc1)c1ccc(OCc2ccccc2)cc1 (stereo unspecified),T/C,[6],98 % of control
same,T/C,[7],92 % of control
same,T/C,"dose: 200.0 mg/kg/injection, schedule: Q01DX005 (ip), vehicle: Klucel (hydroxypropylcellulose) (HPC)",87 % of control
O=C1c2ccccc2C(=O)N1C1CC(=O)n2c1nc1ccccc12 (stereo unspecified),T/C,[8],101 % of control
same,T/C,[9],95 % of control
same,T/C,[12],95 % of control
Cc1ccc(NC(=O)Oc2ccc(C#N)cc2)c(C)c1,T/C,[8],92 % of control
same,T/C,[9],95 % of control
same,T/C,[12],101 % of control
OCc1ccn2c1C(O)CC2 (stereo unspecified),T/C,[1],124 % of control
same,T/C,[13],113 % of control
same,T/C,[2],201 % of control
same,T/C,[3],157 % of control
BrCC(Br)=C(Br)Br,T/C,"dose: 3.12 mg/kg/injection, schedule: Q01DX009 (ip), vehicle: saline with Tween-80",104 % of control
same,T/C,[14],106 % of control
same,T/C,[15],98 % of control
CN(C)C(=C1C=CC=C/C1=N/S(=O)(=O)c1ccccc1)N(C)C,T/C,"dose: 100.0 mg/kg/injection, schedule: Q04DX003 (ip), vehicle: saline",103 % of control
same,T/C,"dose: 200.0 mg/kg/injection, schedule: Q04DX003 (ip), vehicle: saline",108 % of control
same,T/C,"dose: 400.0 mg/kg/injection, schedule: Q04DX003 (ip), vehicle: saline",105 % of control
CCOC(=O)C(CCCCC(NC(C)=O)(C(=O)OCC)C(=O)OCC)(NC(C)=O)C(=O)OCC,T/C,"dose: 100.0 mg/kg/injection, schedule: Q04DX003 (ip), vehicle: saline with Tween-80",100 % of control
same,T/C,"dose: 200.0 mg/kg/injection, schedule: Q04DX003 (ip), vehicle: saline with Tween-80",100 % of control
same,T/C,"dose: 400.0 mg/kg/injection, schedule: Q04DX003 (ip), vehicle: saline with Tween-80",95 % of control
CC1C=NNC1=O (stereo unspecified),T/C,[14],112 % of control
same,T/C,"dose: 125.0 mg/kg/injection, schedule: Q01DX009 (ip), vehicle: other",120 % of control
same,T/C,"dose: 125.0 mg/kg/injection, schedule: Q01DX009 (ip), vehicle: saline with Tween-80",100 % of control
same,T/C,"dose: 250.0 mg/kg/injection, schedule: Q01DX009 (ip), vehicle: other",115 % of control
same,T/C,"dose: 500.0 mg/kg/injection, schedule: Q01DX009 (ip), vehicle: other",175 % of control
same,T/C,"dose: 1000.0 mg/kg/injection, schedule: Q01DX009 (ip), vehicle: saline with Tween-80",172 % of control
CCn1c(Cl)c(/C=N/NC(N)=S)c2cccc(/C=N\NC(N)=S)c21,T/C,"dose: 100.0 mg/kg/injection, schedule: Q01DX001 (ip), vehicle: Klucel (hydroxypropylcellulose) (HPC)",97 % of control
same,T/C,"dose: 200.0 mg/kg/injection, schedule: Q01DX001 (ip), vehicle: Klucel (hydroxypropylcellulose) (HPC)",87 % of control
same,T/C,"dose: 400.0 mg/kg/injection, schedule: Q01DX001 (ip), vehicle: Klucel (hydroxypropylcellulose) (HPC)",97 % of control
C[n+]1c(-c2cccc(OCCOCCOCCOc3cccc(-c4c5cc(N)ccc5c5ccc(N)cc5[n+]4C)c3)c2)c2cc(N)ccc2c2ccc(N)cc21,T/C,"dose: 0.39 mg/kg/injection, schedule: Q01DX009 (ip), vehicle: water",111 % of control
same,T/C,"dose: 0.78 mg/kg/injection, schedule: Q01DX009 (ip), vehicle: water",104 % of control
Clc1ccccc1-c1nnc(-c2cccc(-c3nnc(-c4ccccc4Cl)o3)n2)o1,T/C,"dose: 7.5 mg/kg/injection, schedule: Q01DX005 (ip), vehicle: saline with Tween-80",89 % of control
same,T/C,"dose: 15.0 mg/kg/injection, schedule: Q01DX005 (ip), vehicle: saline with Tween-80",91 % of control
same,T/C,"dose: 30.0 mg/kg/injection, schedule: Q01DX005 (ip), vehicle: saline with Tween-80",89 % of control
same,T/C,[8],101 % of control
same,T/C,[9],97 % of control
same,T/C,[12],104 % of control
N#Cc1c2c(c(O)[nH]c1=O)C(=O)c1ccccc1-2,T/C,[15],115 % of control
same,T/C,[10],104 % of control
same,T/C,[11],93 % of control
C=CC(=O)N1CCCC1C(=O)O (stereo unspecified),T/C,[13],100 % of control
same,T/C,[2],109 % of control
same,T/C,[3],100 % of control
O=C(c1cccc(C(=O)N2CCOCC2)n1)N1CCOCC1,T/C,[16],106 % of control
same,T/C,[17],100 % of control
same,T/C,[18],106 % of control
COc1cc(OC)cc(N2C(N)=NC(N)=NC2(C)C)c1,T/C,[4],104 % of control
same,T/C,[5],105 % of control
same,T/C,[6],102 % of control and 107 % of control
N=c1nc(N)c2ncc(/C=C/c3ccccc3)n(O)c-2n1,T/C,"dose: 15.0 mg/kg/injection, schedule: Q01DX009 (ip), vehicle: saline",97 % of control
same,T/C,"dose: 30.0 mg/kg/injection, schedule: Q01DX009 (ip), vehicle: saline",101 % of control
same,T/C,"dose: 60.0 mg/kg/injection, schedule: Q01DX009 (ip), vehicle: saline",101 % of control
CCNC(=O)n1cccc(OC)c1=O,T/C,[13],101 % of control and 107 % of control
same,T/C,[2],109 % of control and 114 % of control and 119 % of control
same,T/C,[3],111 % of control and 116 % of control
same,T/C,"dose: 300.0 mg/kg/injection, schedule: Q01DX009 (ip), vehicle: saline",109 % of control
CN1CCc2[nH]nc(-c3n[nH]c4c3CN(C)CC4)c2C1,T/C,[16],100 % of control
same,T/C,[17],86 % of control
same,T/C,[18],93 % of control
c1ccc2c(Cc3csc4ccccc34)csc2c1,T/C,"dose: 50.0 mg/kg/injection, schedule: Q01DX005 (ip), vehicle: distilled water + Tween-80 + alcohol",106 % of control
same,T/C,"dose: 100.0 mg/kg/injection, schedule: Q01DX005 (ip), vehicle: distilled water + Tween-80 + alcohol",115 % of control
same,T/C,"dose: 200.0 mg/kg/injection, schedule: Q01DX005 (ip), vehicle: distilled water + Tween-80 + alcohol",115 % of control
Cc1cc(=O)oc2cc(OCc3c(F)cccc3Cl)ccc12,T/C,[8],97 % of control
same,T/C,[9],90 % of control
same,T/C,[12],91 % of control
